These results are taken from patent US20040116293A1, “Enhanced herbicide composition” (priority 2002, published 2004).

Test [1] has as its system Xanthi-nc tobacco. The experiment in a line: Potentiation rating of Aatrex Nine-O (atrazine) herbicidal activity on Xanthi-nc tobacco relative to equimolar salicylic acid. Type of test: in vivo, Nicotiana tabacum (tobacco). Set-up: Potentiation Rating: key: 0 = no potentiation; 1 = potentiation less than equimolar SA; 2 = potentiation statistically equal to equimolar SA; 3 = potentiation statistically greater than equimolar SA. The note with it: for Potentiation of the herbicidal activity of atrazine compared with salicylic acid (in words): tobacco. From the text:
(§1) In all examples, deionized ultra-pure water was used in preparing solutions. Spray solutions were used as soon as possible after mixing.
(§2) In all herbicide applications, plants were sprayed with a sufficient volume to insure good coverage, to the point of runoff of the spray solution. […] For all treatments containing both an herbicide and a salicylate or SAR inducer, these materials were mixed and applied in a single spray solution (commonly known as a tank mix). After spraying, plants were moved to the greenhouse and arranged in randomized complete blocks. Plants were evaluated for herbicidal effects (phytotoxicity) after spraying by assessing damage according to percent leaf area affected. All the data were subject to an analysis of variance, and the mean separations were determined with Duncan's multiple range test at α=0.05.

Test [2] has as its system Xanthi-nc tobacco. The experiment in a line: Herbicidal activity (phytotoxicity, percent leaf area affected) of foliar sprays on Xanthi-nc tobacco. Type of test: in vivo, Nicotiana tabacum (tobacco). The note with it: for Phytotoxicity at 4 days: percent leaf area affected: alone or + NaSA 800 ppm.
Description: as §1, §2

The mark [3] stands for this setting: salicylic acid or SAR inducers with Aatrex Nine-O (atrazine), compared with equimolar SA.
Where [4] appears, read: salicylates, picolinates and benzoates at 2 mM with Aatrex Nine-O (atrazine).
The mark [5] stands for this setting: acibenzolar-S-methyl 935 ppm, alone or + atrazine (Aatrex Nine-O) 100 ppm.
Setting [6] is: atrazine (Aatrex Nine-O) 100 ppm, NaSA 800 ppm, acibenzolar-S-methyl 187 ppm, alone or tank-mixed as labelled.

Consider `O=C(O)c1cc(Cl)nc(Cl)c1` [2,6-Dichloroisonicotinic acid], for which the “Potentiation Rating” value with Xanthi-nc tobacco [1] (setting [3]) worked out at 3. In the test on Xanthi-nc tobacco [1], the “Potentiation of the herbicidal activity of atrazine compared with salicylic acid (in words)” value is on record as “greater potentiation than equimolar salicylic acid”.
For the compound `O=C(O)c1cc(Br)cc(Br)c1O` [3,5-Dibromosalicylic acid], in the test on Xanthi-nc tobacco [1] (setting [4]), the “Potentiation Rating” value is given as 2. The “Potentiation of the herbicidal activity of atrazine compared with salicylic acid (in words)” value with Xanthi-nc tobacco [1] is given as “as active as salicylic acid”.
For the compound `O=C(O)c1cc(Cl)cc(Cl)c1O` [3,5-Dichlorosalicylic acid], the “Potentiation Rating” value in the test on Xanthi-nc tobacco [1] (setting [3]) worked out at 3. Moreover, the “Potentiation of the herbicidal activity of atrazine compared with salicylic acid (in words)” value with Xanthi-nc tobacco [1] is reported as “greater potentiation than equimolar salicylic acid”.
With `O=C(O)c1cc(F)cc(F)c1O` [3,5-Difluorosalicylic acid], the “Potentiation Rating” value with Xanthi-nc tobacco [1] (setting [4]) is 3. Further, in the test with Xanthi-nc tobacco [1], the “Potentiation of the herbicidal activity of atrazine compared with salicylic acid (in words)” value is given as “greater potentiation than salicylic acid”.
As for `O=C(O)c1cccc(Cl)c1O` [3-Chlorosalicylic acid], the “Potentiation Rating” value in the test with Xanthi-nc tobacco [1] (setting [4]) is listed as 3. The “Potentiation of the herbicidal activity of atrazine compared with salicylic acid (in words)” value in the test with Xanthi-nc tobacco [1] is “greater potentiation than salicylic acid”.
Take `O=C(O)c1cccc(F)c1O` [3-Fluorosalicylic acid]: the “Potentiation Rating” value in the test with Xanthi-nc tobacco [1] (setting [4]) was 3. Also, the “Potentiation of the herbicidal activity of atrazine compared with salicylic acid (in words)” value in the test on Xanthi-nc tobacco [1] was “greater potentiation than salicylic acid”.
In the case of `O=C(O)c1ncccc1O` [3-Hydroxypicolinic acid], in the test on Xanthi-nc tobacco [1] (setting [4]), the “Potentiation Rating” value is reported as 3.
On to `COc1cccc(C(=O)O)c1O` [3-Methoxysalicylic acid], for which, in the test with Xanthi-nc tobacco [1] (setting [4]), the “Potentiation Rating” value was 2. Besides, the “Potentiation of the herbicidal activity of atrazine compared with salicylic acid (in words)” value in the test on Xanthi-nc tobacco [1] is reported as “as active as salicylic acid”.
On the same counts, the results for `Cc1cccc(C(=O)O)c1O` [3-Methylsalicylic acid] are 0 and “no potentiation”.
On to `O=C(O)c1cccc([N+](=O)[O-])c1O` [3-Nitrosalicylic acid], for which the “Potentiation Rating” value in the test with Xanthi-nc tobacco [1] (setting [4]) is recorded as 2. Moreover, in the test on Xanthi-nc tobacco [1], the “Potentiation of the herbicidal activity of atrazine compared with salicylic acid (in words)” value was “as active as salicylic acid”.
Consider `O=C(O)c1ccc(Cl)cc1O` [4-Chlorosalicylic acid], for which the “Potentiation Rating” value in the test on Xanthi-nc tobacco [1] (setting [3]) was determined as 3. Also, the “Potentiation of the herbicidal activity of atrazine compared with salicylic acid (in words)” value in the test on Xanthi-nc tobacco [1] was “greater potentiation than equimolar salicylic acid”.
Turning to `O=C(O)c1ccc(F)cc1O` [4-Fluorosalicylic acid], the “Potentiation Rating” value in the test with Xanthi-nc tobacco [1] (setting [4]) is on record as 3. Further, the “Potentiation of the herbicidal activity of atrazine compared with salicylic acid (in words)” value with Xanthi-nc tobacco [1] was “greater potentiation than salicylic acid”.
For `Cc1ccc(C(=O)O)c(O)c1` [4-Methylsalicylic acid] the same measures were 0 and “no potentiation”.
Regarding `O=C(O)c1cc(Br)ccc1O` [5-Bromosalicylic acid], the “Potentiation Rating” value with Xanthi-nc tobacco [1] (setting [4]) amounted to 2. Also, the “Potentiation of the herbicidal activity of atrazine compared with salicylic acid (in words)” value in the test with Xanthi-nc tobacco [1] is recorded as “as active as salicylic acid”.
`O=C(O)c1cc(Cl)ccc1O` [5-Chlorosalicylic acid]: the “Potentiation Rating” value in the test with Xanthi-nc tobacco [1] (setting [3]) came to 3. Further, the “Potentiation of the herbicidal activity of atrazine compared with salicylic acid (in words)” value in the test with Xanthi-nc tobacco [1] is listed as “greater potentiation than equimolar salicylic acid”.
For the compound `O=C(O)c1cc(F)ccc1O` [5-Fluorosalicylic acid], the “Potentiation Rating” value with Xanthi-nc tobacco [1] (setting [4]) is recorded as 3. Besides, the “Potentiation of the herbicidal activity of atrazine compared with salicylic acid (in words)” value with Xanthi-nc tobacco [1] was “greater potentiation than salicylic acid”.
For `Cc1ccc(O)c(C(=O)O)c1` [5-Methylsalicylic acid], the “Potentiation Rating” value in the test with Xanthi-nc tobacco [1] (setting [4]) is listed as 0.
In the case of `O=C(O)c1cc([N+](=O)[O-])ccc1O` [5-Nitrosalicylic acid], the “Potentiation Rating” value in the test with Xanthi-nc tobacco [1] (setting [4]) amounted to 2. Besides, the “Potentiation of the herbicidal activity of atrazine compared with salicylic acid (in words)” value in the test on Xanthi-nc tobacco [1] was “as active as salicylic acid”.
In the case of `O=C(O)c1c(O)cccc1F` [6-Fluorosalicylic acid], the “Potentiation Rating” value in the test with Xanthi-nc tobacco [1] (setting [4]) stood at 2. Moreover, in the test on Xanthi-nc tobacco [1], the “Potentiation of the herbicidal activity of atrazine compared with salicylic acid (in words)” value is “as active as salicylic acid”.
With `Cc1cccc(O)c1C(=O)O` [6-Methylsalicylic acid], the “Potentiation Rating” value with Xanthi-nc tobacco [1] (setting [4]) was found to be 0. In addition, the “Potentiation of the herbicidal activity of atrazine compared with salicylic acid (in words)” value in the test on Xanthi-nc tobacco [1] is given as “no potentiation”.
Take `CSC(=O)c1cccc2nnsc12` [Acibenzolar-S-methyl, 1,2,3-benzothiadiazole-7-carbothioic acid S-methyl ester]: the “Potentiation Rating” value with Xanthi-nc tobacco [1] (setting [3]) turned out to be 3. The “Potentiation of the herbicidal activity of atrazine compared with salicylic acid (in words)” value in the test with Xanthi-nc tobacco [1] is listed as “greater potentiation than equimolar salicylic acid”. Further, in the test on Xanthi-nc tobacco [2] (setting [5]), the “Phytotoxicity at 2 days: percent leaf area affected” value is on record as 0 A percent, the “Phytotoxicity at 3 days: percent leaf area affected” value is listed as 0 A percent and the “Phytotoxicity at 7 days: percent leaf area affected” value is reported as 0.6 A percent. For the same compound, in the test with Xanthi-nc tobacco [2] (setting [6]), the “Phytotoxicity at 2 days: percent leaf area affected” value is listed as 0 A percent, the “Phytotoxicity at 3 days: percent leaf area affected” value was found to be 0 A percent and the “Phytotoxicity at 7 days: percent leaf area affected” value is on record as 0 A percent. The “Effect of Actigard on atrazine activity (in words)” value with Xanthi-nc tobacco [2] (tobacco) is on record as “dose-dependent acceleration of atrazine activity”.
Consider `CC(C)N1C(=O)c2ccccc2NS1(=O)=O` [Bentazon, 3-(1-methylethyl)-1H-2,1,3-benzothiadiazin-4(3H)-one 2,2-dioxide], for which the “Phytotoxicity at 4 days: percent leaf area affected” value is listed as 10 A percent with Xanthi-nc tobacco [2] (bentazon (Basagran) 100 ppm), 32.5 B percent in the test on Xanthi-nc tobacco [2] (bentazon (Basagran) 250 ppm) and 72.5 CD percent in the test with Xanthi-nc tobacco [2] (bentazon (Basagran) 500 ppm).
For `C=CCOC1=NS(=O)(=O)c2ccccc21` [Probenazole], the “Potentiation of the herbicidal activity of atrazine compared with salicylic acid (in words)” value in the test with Xanthi-nc tobacco [1] is recorded as “greater potentiation than equimolar salicylic acid”.
Take `O=C(O)c1ccccc1O` [Salicylic acid, salicylic acid]: the “Potentiation Rating” value with Xanthi-nc tobacco [1] (setting [4]) and in the test with Xanthi-nc tobacco [1] (setting [3]) was 2 each time.
With `O=C([O-])c1ccccc1.[Na+]` [Sodium benzoate], in the test with Xanthi-nc tobacco [1] (setting [4]), the “Potentiation Rating” value came to 0. Besides, the “Potentiation of the herbicidal activity of atrazine compared with salicylic acid (in words)” value in the test with Xanthi-nc tobacco [1] was “no potentiation”.
As to `CCOC(=O)C(C)OC(=O)c1cc(Oc2ccc(C(F)(F)F)cc2Cl)ccc1[N+](=O)[O-]` (centres unmarked) [lactofen], the “Potentiation of the herbicidal activity of atrazine compared with salicylic acid (in words)” value in the test on Xanthi-nc tobacco [1] is “greater potentiation than equimolar salicylic acid”.
